Data: patent US12396459B2, “Synergistically effective herbicide composition comprising pyridate and at least one defined 4-HPPD inhibitor” (BELCHIM CROP PROTECTION NV, priority 2018, dated 2025)
Read-outs that look alike come from different tables or passages of the source.

Experiments:
Format in all cases: in vivo
Anagallis arvensis = experiment: Field trial post-emergence in maize: ANGAR; details: 7-14 DAA; # = 2; g a.c./ha: PYR 300, MES 100, PYR + MES 300 + 90
Method: (§1) Herbicidal activity of herbicide compositions according to the first aspect of the present invention with regard to different types of unwanted vegetation was determined during trials performed on test fields (field trials). Individual compositions comprising pyridate and individual compositions comprising a defined 4-HPPD inhibitor are compared with a herbicide composition according to the invention comprising both pyridate and a defined 4-HPPD inhibitor. The expected activity of the combination of the active compounds pyridate and a defined 4-HPPD inhibitor is calculated according to above mentioned calculation method by Colby, in order to evaluate a synergistic effect between pyridate and a defined 4-HPPD inhibitor.
(§2) Herbicidal activity was determined by applying herbicide compositions on emerged unwanted vegetation on fields where maize was cultivated. Pyridate and a defined 4-HPPD inhibitor were applied as a tank mixture by mixing these active compounds prior to use in a spray tank. The corresponding mixture was in the form of a spray liquor. […] At a specified number of days after application (DAA), the degree of damage to the unwanted vegetation is rated in % of plants of unwanted vegetation that were killed, which was assessed by visually controlling the plants.

Solanum nigrum = experiment: Examples 6-8 herbicidal effect: SOLNI; details: 7 DAA
Persicaria maculosa = experiment: Field trial post-emergence in maize: POLPE; details: for herbicidal effect (h.e.): g a.c./ha: PYR 300, MES 100, PYR + MES 300 + 90
Method: as §1
(§3) Herbicidal activity was determined by applying herbicide compositions on emerged unwanted vegetation on fields where maize was cultivated. Pyridate and a defined 4-HPPD inhibitor were applied as a tank mixture by mixing these active compounds prior to use in a spray tank. The corresponding mixture was in the form of a spray liquor. Besides, spray liquors of individual compositions comprising pyridate and of individual compositions comprising a defined 4-HPPD inhibitor were used. Test plants of unwanted vegetation with a growth stage corresponding to BBCH 10-18 (according to the extended BBCH-scale) were sprayed with the active compound preparations such that particular desired amounts of active compounds are applied per unit area. Spray liquor was diluted with water to arrive at an application volume of 50 to 450 L/ha. At a specified number of days after application (DAA), the degree of damage to the unwanted vegetation is rated in % of plants of unwanted vegetation that were killed, which was assessed by visually controlling the plants.

Datura stramonium = experiment: Field trial post-emergence in maize: DATST; details: 7-14 DAA; # = 2; g a.c./ha: PYR 300, MES 100, PYR + MES 300 + 90
Method: as §1, §2

Brassica napus = experiment: Field trial post-emergence in maize: BRSNN; details: # = 1, g a.c./ha: PYR 300, MES 100, PYR + MES 300 + 90
Method: as §1, §3

Rumex obtusifolius = experiment: Field trial post-emergence in maize: RUMOB
Method: as §1, §3
(§4) Example 1 concerns a herbicide composition comprising a combination of pyridate and mesotrione, which was applied post-emergence on unwanted vegetation on a field where maize was cultivated, according to the test conditions mentioned above.

Hibiscus ternatus = experiment: Field trial post-emergence in maize: HIBTR; details: 7-14 DAA; # = 2; g a.c./ha: PYR 300, MES 100, PYR + MES 300 + 90
Method: as §1, §2

Chenopodium album = experiment: Examples 6-8 herbicidal effect: CHEAL; details: 7 DAA
[1] = system: Tripleurospermum inodorum; experiment: Field trial post-emergence in maize: MATIN; details: for herbicidal effect (h.e.): # = 1, g a.c./ha: PYR 300, MES 100, PYR + MES 300 + 90
Method: as §1, §3

Convolvulus arvensis = experiment: Field trial post-emergence in maize: CONAR
Method: as §1, §3, §4

Setaria verticillata = experiment: Field trial post-emergence in maize: SETVE
Method: as §1, §3, §4

Abutilon theophrasti = experiment: Field trial post-emergence in maize: ABUTH; details: 31-48 DAA; # = 2; g a.c./ha: PYR 300, MES 100, PYR + MES 300 + 90
Method: as §1, §2

Echinochloa crus-galli = experiment: Examples 6-8 herbicidal effect: ECHCG; details: 7 DAA
Sorghum halepense = experiment: Field trial post-emergence in maize: SORHA; details: 7-14 DAA; # = 1; g a.c./ha: PYR 300, MES 100, PYR + MES 300 + 90
Method: as §1, §2

Capsella bursa-pastoris = experiment: Field trial post-emergence in maize: CAPBP
Method: as §1, §3

Sonchus oleraceus = experiment: Field trial post-emergence in maize: SONOL; details: # = 1, g a.c./ha: PYR 300, MES 100, PYR + MES 300 + 90
Method: as §1, §3

Papaver rhoeas = experiment: Field trial post-emergence in maize: PAPRH; details: # = 1, g a.c./ha: PYR 300, MES 100, PYR + MES 300 + 90
Method: as §1, §3

Portulaca oleracea = experiment: Field trial post-emergence in maize: POROL; details: # = 1, g a.c./ha: PYR 300, MES 100, PYR + MES 300 + 90
Method: as §1, §3

Brassica napus (winter) = experiment: Field trial post-emergence in maize: BRSNW; details: # = 1, g a.c./ha: PYR 300, MES 100, PYR + MES 300 + 90
Method: as §1, §3

Amaranthus retroflexus = experiment: Field trial post-emergence in maize: AMARE; details: 13-14 DAA; # = 1; g a.c./ha: PYR 450, MES 144, PYR + MES 450 + 144
Method: as §1, §3

Atriplex patula = experiment: Field trial post-emergence in maize: ATXPA
Method: as §1, §3, §4

[2] = g a.c./ha: MES 50, PYR + SMO 300 + 800
[3] = g a.c./ha: MES 80, PYR + MES 300 + 50

## CS(=O)(=O)c1ccc(C(=O)C2C(=O)CCCC2=O)c([N+](=O)[O-])c1 [MES, 2-(4-methylsulfonyl-2-nitrobenzoyl) cyclohexane-1,3-dione]
Anagallis arvensis
  herbicidal effect (h.e.): 98%
Solanum nigrum; [2]
  herbicidal effect (h.e.): 67%
Solanum nigrum; [3]
  herbicidal effect (h.e.): 54%
Persicaria maculosa; 7-14 DAA, # = 3
  herbicidal effect (h.e.): 91%
Persicaria maculosa; 31-48 DAA, # = 4
  herbicidal effect (h.e.): 89%
Persicaria maculosa; POLPE 14-20 DAA 45 g a.c./ha
  MES h.e.: 83%
Persicaria maculosa; POLPE 14-20 DAA 90 g a.c./ha
  MES h.e.: 98%
Persicaria maculosa; POLPE 14-20 DAA 135 g a.c./ha
  MES h.e.: 98%
Persicaria maculosa; POLPE 24-31 DAA 45 g a.c./ha
  MES h.e.: 93%
Datura stramonium
  herbicidal effect (h.e.): 98%
Brassica napus; 7-14 DAA
  herbicidal effect (h.e.): 86%
Brassica napus; 18-28 DAA
  herbicidal effect (h.e.): 85%
Brassica napus; 31-48 DAA
  herbicidal effect (h.e.): 84%
Rumex obtusifolius; RUMOB 14-20 DAA 45 g a.c./ha
  MES h.e.: 87%
Rumex obtusifolius; RUMOB 14-20 DAA 90 g a.c./ha
  MES h.e.: 95%
Rumex obtusifolius; RUMOB 14-20 DAA 135 g a.c./ha
  MES h.e.: 95%
Hibiscus ternatus
  herbicidal effect (h.e.): 62%
Chenopodium album; [2]
  herbicidal effect (h.e.): 77%
Chenopodium album; [3]
  herbicidal effect (h.e.): 92%
[1]; 7-14 DAA
  herbicidal effect (h.e.): 77%
[1]; 18-28 DAA
  herbicidal effect (h.e.): 78%
[1]; 31-48 DAA
  herbicidal effect (h.e.): 80%
[1]; MATIN 24-31 DAA 45 g a.c./ha
  MES h.e.: 80%
Convolvulus arvensis; CONAR 14-20 DAA 45 g a.c./ha
  MES h.e.: 40%
Convolvulus arvensis; CONAR 14-20 DAA 90 g a.c./ha
  MES h.e.: 68%
Convolvulus arvensis; CONAR 14-20 DAA 135 g a.c./ha
  MES h.e.: 83%
Convolvulus arvensis; CONAR 24-31 DAA 135 g a.c./ha
  MES h.e.: 80%
Setaria verticillata; SETVE 14-20 DAA 45 g a.c./ha
  MES h.e.: 21%
Setaria verticillata; SETVE 14-20 DAA 90 g a.c./ha
  MES h.e.: 41%
Setaria verticillata; SETVE 14-20 DAA 135 g a.c./ha
  MES h.e.: 55%
Setaria verticillata; SETVE 24-31 DAA 45 g a.c./ha
  MES h.e.: 31%
Setaria verticillata; SETVE 24-31 DAA 90 g a.c./ha
  MES h.e.: 37%
Setaria verticillata; SETVE 24-31 DAA 135 g a.c./ha
  MES h.e.: 58%
Abutilon theophrasti
  herbicidal effect (h.e.): 91%
Echinochloa crus-galli; [2]
  herbicidal effect (h.e.): 70%
Echinochloa crus-galli; [3]
  herbicidal effect (h.e.): 73%
Sorghum halepense
  herbicidal effect (h.e.): 42%
Capsella bursa-pastoris
  MES h.e.: 97%
Capsella bursa-pastoris; 7-14 DAA, # = 3, g a.c./ha: PYR 300, MES 100, PYR + MES 300 + 90
  herbicidal effect (h.e.): 90%
Capsella bursa-pastoris; CAPBP 14-20 DAA 300 g a.c./ha
  MES h.e.: 97%
Capsella bursa-pastoris; CAPBP 14-20 DAA 600 g a.c./ha
  MES h.e.: 97%
Capsella bursa-pastoris; CAPBP 24-31 DAA 45 g a.c./ha
  MES h.e.: 97%
Sonchus oleraceus; 7-14 DAA
  herbicidal effect (h.e.): 90%
Sonchus oleraceus; 18-28 DAA
  herbicidal effect (h.e.): 54%
Sonchus oleraceus; 31-48 DAA
  herbicidal effect (h.e.): 41%
Papaver rhoeas; 18-28 DAA
  herbicidal effect (h.e.): 80%
Papaver rhoeas; 31-48 DAA
  herbicidal effect (h.e.): 89%
Portulaca oleracea; 7-14 DAA
  herbicidal effect (h.e.): 50%
Portulaca oleracea; 18-28 DAA
  herbicidal effect (h.e.): 5%
Brassica napus (winter); 7-14 DAA
  herbicidal effect (h.e.): 98%
Brassica napus (winter); 18-28 DAA
  herbicidal effect (h.e.): 99%
Amaranthus retroflexus
  herbicidal effect (h.e.): 45%
Atriplex patula; ATXPA 24-31 DAA 90 g a.c./ha
  MES h.e.: 97%
Atriplex patula; ATXPA 24-31 DAA 135 g a.c./ha
  MES h.e.: 97%
